Consider 17 compounds from ChEMBL document CHEMBL1156967 (Bioorg Med Chem Lett, 2010).

One may read the IC50 as the point on the concentration scale where inhibition reaches its midpoint. One may read the inhibition in vivo as the percentage by which the read-out fell short of the control. By half-life is commonly meant the time needed for the level to fall by half in the phase considered. Lower therefore signals rapid decline. As a reminder, the CLint scaled is the rate of metabolic loss divided by the concentration. Read a low CLint scaled as greater metabolic stability. As usually defined, the inhibition is the change of the read-out against control, counted positive when it falls.

The target in series [1] is Mitogen-activated protein kinase 11 (Homo sapiens, UniProt Q15759). Briefly: Inhibition of p38beta assessed as gamma-[33P]ATP incorporation by scintillation counting.
Series [2] relates to Rattus norvegicus. In words: Antiinflammatory activity in Lewis rat plasma assessed as reduction in LPS-stimulated TNFalpha accumulation at 5 mg/kg, ig administered 4 hrs before LPS challenge measured after […] by ELISA. Type of series: functional. Conditions: po, route intragastric. (In an ELISA, binding on a coated surface is turned into a signal by an enzyme label.)
Series [3] has as its target Mitogen-activated protein kinase 14 (Homo sapiens, UniProt Q16539). In words: Inhibition of p38alpha assessed as gamma-[33P]ATP incorporation by scintillation counting.
A short description of series [4]: Half life in human liver microsomes. The series is classed as ADME, Microsome. In general terms: Liver microsomes are a subcellular fraction often used to study metabolism.
Series [5] is described as follows: Intrinsic clearance in human liver microsomes. The series is classed as ADME, Microsome.
For series [6], the system named is Rattus norvegicus. In words: Antiinflammatory activity in Lewis rat assessed as reduction in LPS-stimulated TNFalpha accumulation at 1 mg/kg, ig administered 4 hrs before LPS challenge measured after […] by ELISA. The series is classed as functional. To be noted: po, route intragastric.
Another series concerns Mus musculus. Briefly: Antiarthritic activity against collagen-induced arthritis in DBA/1 mouse chronic CIA model assessed as incidence of arthritis at 30 mg/kg, po after 21 days. The series is classed as functional.
In the next series the target is hERG (KCNH2) (Homo sapiens, UniProt Q12809). Briefly: Displacement of dofetilide from human ERG at 10 uM. Conditions: probe dofetilide.
A further series relates to Blood. Briefly: Antiinflammatory activity against LPS-induced TNFalpha production in human whole blood treated 1 hr before LPS challenge measured after 4 hrs by ELISA. The series is classed as functional, tissue-based.
Series [7] is described as follows: Selectivity ratio of IC50 for p38 beta to IC50 for p38alpha.
In series [8] the test system is Rattus norvegicus. In words: Antiinflammatory activity in Lewis rat plasma assessed as reduction in LPS-stimulated TNFalpha accumulation at 20 mg/kg, ig administered 4 hrs before LPS challenge measured after […] by ELISA. To be noted: po, route intragastric. The series is classed as functional.

Mitogen-activated protein kinase 11, sequence (Q15759 whole entry): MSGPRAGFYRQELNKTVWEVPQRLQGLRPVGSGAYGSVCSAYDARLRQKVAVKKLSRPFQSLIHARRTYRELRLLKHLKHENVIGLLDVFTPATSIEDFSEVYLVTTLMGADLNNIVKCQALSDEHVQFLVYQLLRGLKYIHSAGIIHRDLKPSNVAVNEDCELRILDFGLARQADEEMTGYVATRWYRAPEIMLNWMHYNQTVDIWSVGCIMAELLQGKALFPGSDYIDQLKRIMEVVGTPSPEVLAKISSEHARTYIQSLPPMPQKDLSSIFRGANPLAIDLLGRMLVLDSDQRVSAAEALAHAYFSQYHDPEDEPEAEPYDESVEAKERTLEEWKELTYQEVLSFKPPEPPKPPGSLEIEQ
Mitogen-activated protein kinase 14, sequence (Q16539 whole entry): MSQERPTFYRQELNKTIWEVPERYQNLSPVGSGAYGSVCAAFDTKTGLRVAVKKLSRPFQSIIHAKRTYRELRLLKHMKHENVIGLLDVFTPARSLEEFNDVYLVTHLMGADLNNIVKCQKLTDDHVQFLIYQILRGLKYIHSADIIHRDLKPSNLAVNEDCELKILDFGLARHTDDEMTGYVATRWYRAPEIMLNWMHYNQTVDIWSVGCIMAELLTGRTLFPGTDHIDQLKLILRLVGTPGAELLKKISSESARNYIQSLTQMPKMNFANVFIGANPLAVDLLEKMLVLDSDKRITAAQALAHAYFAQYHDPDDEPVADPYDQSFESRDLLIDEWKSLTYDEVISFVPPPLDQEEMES
hERG (KCNH2), sequence (Q12809 whole entry): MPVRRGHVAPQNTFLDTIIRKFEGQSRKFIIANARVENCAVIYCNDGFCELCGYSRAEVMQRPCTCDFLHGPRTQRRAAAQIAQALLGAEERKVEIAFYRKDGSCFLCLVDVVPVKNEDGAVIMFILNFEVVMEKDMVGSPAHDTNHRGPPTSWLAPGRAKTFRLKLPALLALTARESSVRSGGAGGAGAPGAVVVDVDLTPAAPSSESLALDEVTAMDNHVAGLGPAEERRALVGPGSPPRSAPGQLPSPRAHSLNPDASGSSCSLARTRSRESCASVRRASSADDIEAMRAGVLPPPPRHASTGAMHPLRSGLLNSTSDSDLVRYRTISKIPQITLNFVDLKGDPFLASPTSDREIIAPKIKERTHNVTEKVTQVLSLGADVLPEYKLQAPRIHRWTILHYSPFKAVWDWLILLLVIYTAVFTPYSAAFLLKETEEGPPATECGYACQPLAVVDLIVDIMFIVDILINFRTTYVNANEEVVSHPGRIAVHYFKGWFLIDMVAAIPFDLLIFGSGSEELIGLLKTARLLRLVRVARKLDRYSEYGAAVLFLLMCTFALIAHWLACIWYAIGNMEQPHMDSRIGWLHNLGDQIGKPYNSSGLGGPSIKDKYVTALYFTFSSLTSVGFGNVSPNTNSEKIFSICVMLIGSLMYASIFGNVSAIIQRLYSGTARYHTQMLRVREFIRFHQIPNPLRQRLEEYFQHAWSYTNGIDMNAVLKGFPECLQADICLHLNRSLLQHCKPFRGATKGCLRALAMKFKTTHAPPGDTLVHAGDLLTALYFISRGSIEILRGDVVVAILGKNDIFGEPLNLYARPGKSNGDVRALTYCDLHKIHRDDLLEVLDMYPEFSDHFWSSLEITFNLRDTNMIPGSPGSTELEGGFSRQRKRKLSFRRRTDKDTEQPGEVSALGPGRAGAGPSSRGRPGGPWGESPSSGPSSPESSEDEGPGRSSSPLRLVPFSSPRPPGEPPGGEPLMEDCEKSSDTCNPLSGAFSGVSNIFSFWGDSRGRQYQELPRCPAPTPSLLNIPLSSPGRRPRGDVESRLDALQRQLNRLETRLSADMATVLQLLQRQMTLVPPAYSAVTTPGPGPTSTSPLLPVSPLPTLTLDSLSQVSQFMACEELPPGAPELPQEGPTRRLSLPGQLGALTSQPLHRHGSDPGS

On to `CN1CCC(c2[nH]nc(-c3cccc(Cl)c3)c2-c2ccncc2)CC1`, for which the IC50 in series [1] was determined as 1050 nM. Further, the inhibition in vivo at 5 mg/kg with Rattus norvegicus [2] amounted to 27%.
Consider `Clc1ccc(-c2n[nH]c(C3CCN(C4CCOC4)CC3)c2-c2ccncn2)cc1` (stereo not drawn), for which the IC50 in series [1] was 7410 nM; in series [3], 31 nM; with Blood it was 520 nM. In series [4], this compound showed a half-life of 61.3 min. In series [5], the CLint scaled was 16.3 mL/min/kg. Further, in the series on Rattus norvegicus [6], the inhibition in vivo at 1 mg/kg is 80%. Besides, the Activity in the series on Mus musculus is given as 50%. In addition, at 10 µM the inhibition at hERG (KCNH2) was 35%. In addition, the inhibition in vivo at 5 mg/kg in the series with Rattus norvegicus [2] came to 70%.
With `CN1CCCC(c2[nH]nc(-c3ccc(F)cc3)c2-c2ccncc2)C1` (stereo not drawn), the IC50 in series [1] is 2520 nM; in [3], 90 nM. The inhibition in vivo at 5 mg/kg with Rattus norvegicus [2] is 63%. Moreover, the Ratio IC50 in [7] came out at 28.
In the case of `O[C@H]1CCC[C@@H]1N1CCC(c2[nH]nc(-c3ccc(Cl)cc3)c2-c2ccncn2)CC1`, the IC50 in [1] stood at 3380 nM; in series [3], 19 nM. Further, the inhibition in vivo at 1 mg/kg with Rattus norvegicus [6] stood at 40%. In the series on Rattus norvegicus [2], the inhibition in vivo at 5 mg/kg amounted to 70%.
With `COCCN1CCC(c2[nH]nc(-c3ccc(Cl)cc3)c2-c2ccncc2)CC1`, the IC50 in series [1] turned out to be 6720 nM; in [3], 70 nM. In series [4], this compound showed a half-life of 21.5 min. In series [5], this compound came in with a CLint scaled of 47.7 mL/min/kg. Moreover, the Activity with Mus musculus was 22%. Also, at hERG (KCNH2), the inhibition at 10 µM came out at 74%. Further, in the series with Rattus norvegicus [2], the inhibition in vivo at 5 mg/kg stood at 84%.
Regarding `Cc1cccc(-c2n[nH]c(C3CCN(C)CC3)c2-c2ccncc2)c1`, the IC50 worked out at 2350 nM in series [1] and 67.3 nM in series [3]. Further, the inhibition in vivo at 20 mg/kg in the series on Rattus norvegicus [8] amounted to 81%.
Consider `Clc1ccc(-c2n[nH]c(C3CCN(Cc4ccncc4)CC3)c2-c2ccncn2)cc1`, for which the IC50 in series [1] is 3290 nM; in series [3] it was 47 nM. Moreover, the inhibition in vivo at 5 mg/kg in the series with Rattus norvegicus [2] stood at 27%.
For the compound `COCC(=O)N1CCC(c2[nH]nc(-c3ccc(Cl)cc3)c2-c2ccncc2)CC1`, the IC50 in series [1] was 3450 nM. The inhibition in vivo at 5 mg/kg in the series with Rattus norvegicus [2] worked out at 90%.
In the case of `CC(C)(CO)N1CCC(c2[nH]nc(-c3ccc(Cl)cc3)c2-c2ccncn2)CC1`, the values for the IC50 in [1] and in [3] were 2780 nM and 184 nM, respectively. Besides, the inhibition in vivo at 5 mg/kg with Rattus norvegicus [2] is 0%.
The like results for `CN1CCC(c2[nH]nc(-c3ccc(C(F)(F)F)cc3)c2-c2ccncc2)CC1` were, in that order, 3770 nM, 40.5 nM and 22%.
Regarding `CC(C)(O)CN1CCC(c2[nH]nc(-c3ccc(Cl)cc3)c2-c2ccncn2)CC1`, the IC50 is 9780 nM in [1], 88 nM in series [3] and 1000 nM in the series with Blood. Also, the inhibition in vivo at 1 mg/kg with Rattus norvegicus [6] came out at 3%. Further, in the series with Rattus norvegicus [2], the inhibition in vivo at 5 mg/kg was 34%.
On to `CS(=O)(=O)N1CCC(c2[nH]nc(-c3ccc(Cl)cc3)c2-c2ccncn2)CC1`, for which the results for the IC50 (in [1]; in [3]; in the series on Blood) were 4100 nM, 198 nM and over 5000 nM, respectively. The half-life in series [4] stood at 53.9 min. Further, the CLint scaled in [5] worked out at 18.1 mL/min/kg. For the same compound, in the series on Rattus norvegicus [6], the inhibition in vivo at 1 mg/kg was 26%. Besides, the Activity in the series with Mus musculus is reported as 44%. In the series on Rattus norvegicus [2], the inhibition in vivo at 5 mg/kg was found to be 89%.
For `NS(=O)(=O)N1CCC(c2[nH]nc(-c3ccc(Cl)cc3)c2-c2ccncc2)CC1`, the IC50 was 1650 nM in [1] and 14 nM in [3]. Moreover, the inhibition in vivo at 5 mg/kg in the series with Rattus norvegicus [2] is 68%.
`CN(C)CC(=O)N1CCC(c2[nH]nc(-c3ccc(Cl)cc3)c2-c2ccncc2)CC1`: the values for the IC50 in series [1] and in series [3] were 6720 nM and 80 nM, respectively. Also, in the series on Rattus norvegicus [2], the inhibition in vivo at 5 mg/kg is 85%.
On to `COCCCN1CCC(c2[nH]nc(-c3ccc(Cl)cc3)c2-c2ccncc2)CC1`, for which the figures for the IC50 in series [1] and in series [3] were 6550 nM and 106 nM, respectively.
With `CN1CCC(c2[nH]nc(-c3ccc(Cl)cc3)c2-c2ccncc2)CC1`, the results for the IC50 in series [1] and in series [3] were 2680 nM and 31.6 nM, respectively. Further, in the series with Rattus norvegicus [2], the inhibition in vivo at 5 mg/kg was determined as 71%. Also, the Ratio IC50 in series [7] worked out at 84.
Consider `COCC(=O)N1CCC(c2[nH]nc(-c3ccc(Cl)cc3)c2-c2ccncn2)CC1`, for which the IC50 in [1] worked out at 3250 nM. Further, the inhibition in vivo at 1 mg/kg with Rattus norvegicus [6] amounted to 71%. The inhibition in vivo at 5 mg/kg with Rattus norvegicus [2] stood at 88%.
